Test [1] concerns the target T1, OE19 (3A1) (Homo sapiens, UniProt P30838).
T1 sequence (P30838 1-453): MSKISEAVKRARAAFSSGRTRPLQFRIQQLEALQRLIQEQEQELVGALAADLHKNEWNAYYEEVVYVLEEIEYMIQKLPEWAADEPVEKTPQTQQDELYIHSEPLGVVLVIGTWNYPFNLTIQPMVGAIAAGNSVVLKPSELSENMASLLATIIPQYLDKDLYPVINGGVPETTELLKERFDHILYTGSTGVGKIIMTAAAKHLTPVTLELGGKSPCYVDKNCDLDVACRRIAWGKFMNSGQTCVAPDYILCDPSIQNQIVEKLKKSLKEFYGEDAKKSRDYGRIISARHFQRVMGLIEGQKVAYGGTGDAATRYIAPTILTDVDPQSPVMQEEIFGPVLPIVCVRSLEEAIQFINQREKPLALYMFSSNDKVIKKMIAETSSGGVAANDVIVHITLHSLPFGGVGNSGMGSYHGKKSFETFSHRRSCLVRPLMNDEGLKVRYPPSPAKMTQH
As to the kind of experiment: Cellular ALDEFLUOR assay in OE19 cells (preferential ALDH3A1 expression). The conditions noted are these: for Cell_Efficacy: Table S4, OE19 cells; for Cell_CC-v2: Table S4, cellular curve class.

Test [2] addresses T2, Human ALDH3A1 (Homo sapiens, UniProt P30838).
T2 sequence (P30838 1-453): T1 sequence (P30838 1-453)
As to the kind of experiment: ALDH3A1 biochemical assay (benzaldehyde/NADP+, diaphorase-resazurin readout, 1,536-well). Conditions: for Efficacy: Table S4, biochemical; for CC-v2: Table S4, biochemical curve class.

These results are taken from paper PMC13266984 (Journal of medicinal chemistry, 2026).

Structures are written as SMILES.

Consider `Cc1cccc(CNC(=O)c2csc(N3CCN(c4ccc(N5CCOCC5)cc4)CC3)n2)c1` [NCGC01211186-01], for which, in test [1], the concentration at half-maximal activity (AC50) is 3130 nM, the Cell_Efficacy was -98.82 and the Cell_CC-v2 was -1.1. For the same molecule, in test [2], the concentration at half-maximal activity (AC50) stood at 4080 nM, the Efficacy is listed as -37.13 and the CC-v2 is given as -1.2.

In test [1], `Cc1cccc(CNC(=O)c2csc(N3CCN(Cc4cccc(C)c4)CC3)n2)c1` [NCGC01211187-01] showed an AC50 of 4420 nM, a Cell_Efficacy of -121.01 and a Cell_CC-v2 of -2.1. Besides, in test [2], the concentration at half-maximal activity (AC50) is 910 nM, the Efficacy is -93.83 and the CC-v2 is -1.1.

In test [1], `COc1ccc(F)c(N2CCN(c3nc(C(=O)NCc4cccc(C)c4)cs3)CC2)c1` [NCGC01211189-01] registered an AC50 of 7850 nM, a Cell_Efficacy of -96.01 and a Cell_CC-v2 of -1.1. In test [2], this molecule returned a concentration at half-maximal activity (AC50) of 910 nM, an Efficacy of -85.97 and a CC-v2 of -1.1.

For `Cc1cccc(CNC(=O)c2csc(N3CCN(c4ccc(C#N)cc4)CC3)n2)c1` [NCGC01211190-01], in test [1], the AC50 was determined as 3510 nM, the Cell_Efficacy is -84.69 and the Cell_CC-v2 was -1.1. In test [2], this molecule gave an AC50 of 1450 nM, an Efficacy of -61.92 and a CC-v2 of -1.2.

In test [1], `Cc1cccc(CNC(=O)c2csc(N3CCN(c4ccc(C(N)=O)cc4)CC3)n2)c1` [NCGC01211194-01] came in with a half-maximal activity concentration (AC50) of 880 nM, a Cell_Efficacy of -43.91 and a Cell_CC-v2 of -1.2. Also, in test [2], the AC50 was 40800 nM, the Efficacy is on record as -38.00 and the CC-v2 is on record as -2.2.

In test [1], `Cc1cccc(CNC(=O)c2csc(N3CCN(c4ccc(C)c(C)c4)CC3)n2)c1` [NCGC01211295-01] showed a half-maximal activity concentration (AC50) of 2210 nM, a Cell_Efficacy of -85.13 and a Cell_CC-v2 of -1.3. In addition, in test [2], the concentration at half-maximal activity (AC50) came out at 1020 nM, the Efficacy is -92.09 and the CC-v2 is -1.1.

Take `Cc1cccc(CNC(=O)c2csc(N3CCN(c4cccc(OCc5ccccc5C)c4)CC3)n2)c1` [NCGC01211373-01]: in test [1], the AC50 was found to be 1110 nM, the Cell_Efficacy was -85.56 and the Cell_CC-v2 was -1.1. In test [2], this molecule gave an AC50 of 360 nM, an Efficacy of -60.22 and a CC-v2 of -1.2.

In the case of `COc1ccc(Cl)c(N2CCN(c3nc(C(=O)NCc4cccc(C)c4)cs3)CC2)c1` [NCGC01211381-01], in test [1], the AC50 came out at 31300 nM, the Cell_Efficacy was -102.69 and the Cell_CC-v2 is listed as -2.3. In test [2], this molecule came in with an AC50 of 580 nM, an Efficacy of -89.43 and a CC-v2 of -1.1.

Regarding `Cc1cccc(CNC(=O)c2csc(N3CCN(c4c(F)cccc4F)CC3)n2)c1` [NCGC01211383-01], in test [1], the AC50 turned out to be 15700 nM, the Cell_Efficacy is -112.70 and the Cell_CC-v2 is -2.1. In test [2], this molecule came in with an AC50 of 910 nM, an Efficacy of -88.99 and a CC-v2 of -1.1.

Consider `Cc1cccc(CNC(=O)c2csc(N3CCN(c4ccc(OC(F)(F)F)cc4)CC3)n2)c1` [NCGC01211384-01], for which, in test [1], half-maximal activity (AC50) was put at 3930 nM, the Cell_Efficacy was -82.59 and the Cell_CC-v2 is on record as -1.1. In test [2], this molecule came in with a concentration at half-maximal activity (AC50) of 650 nM, an Efficacy of -96.17 and a CC-v2 of -1.1.

In test [1], `COc1cc(N2CCN(c3nc(C(=O)NCc4cccc(C)c4)cs3)CC2)cc(OC)c1OC` [NCGC01211386-01] showed a concentration at half-maximal activity (AC50) of 9880 nM, a Cell_Efficacy of -70.97 and a Cell_CC-v2 of -1.2. Besides, in test [2], half-maximal activity (AC50) was put at 3640 nM, the Efficacy is listed as -76.22 and the CC-v2 is on record as -1.2.

Consider `COc1ccc(N2CCN(c3nc(C(=O)NCc4cccc(C)c4)cs3)CC2)cc1O` [NCGC01211394-01], for which, in test [1], half-maximal activity (AC50) was put at 15700 nM, the Cell_Efficacy was -88.85 and the Cell_CC-v2 was -2.3. In test [2], this molecule displayed a concentration at half-maximal activity (AC50) of 1150 nM, an Efficacy of -71.12 and a CC-v2 of -1.2.

In test [1], `COc1cc(N2CCN(c3nc(C(=O)NCc4cccc(C)c4)cs3)CC2)ccc1F` [NCGC01211397-01] showed an AC50 of 2790 nM, a Cell_Efficacy of -82.14 and a Cell_CC-v2 of -1.1. In addition, in test [2], half-maximal activity (AC50) was put at 2890 nM, the Efficacy is recorded as -71.38 and the CC-v2 was -1.2.

As usually defined, the AC50 is the concentration at which the activity in the assay is half-maximal. High values mean activity only at high concentration, low ones activity at low concentration.
